This is an account of results in US20130237582A1, “PHARMACEUTICAL COMBINATION OF PACLITAXEL AND A CDK INHIBITOR” (Piramal Enterprises Limited, priority 2010, published 2013).

The subject of one assay is HIF-1α. Put plainly: HIF-1α reporter gene based assay (U251 HRE). The class given is cell-based. The note with it: hypoxia (<1% O2), 0.01-10 μM, 20 h. From the text: 1) U251 HRE: The genetically engineered cells U251 HRE which stably express a recombinant vector in which the Luciferase reporter gene is under control of three copies of a canonical HRE. 2) U251 pGL3: A control cell line contains the firefly Luciferase reporter gene under control of the constitutively active SV40 promoter and enhancer that helps to exclude compounds that inhibit Luciferase expression in a nonspecific and/or HIF-1-independent fashion. These cells expressed high basal levels of Luciferase in normoxic conditions and slightly lower levels in hypoxic conditions.
U251 HRE cells were inoculated into 96 well white flat-bottomed plates at 10000-15000 cells/well in a volume of 180 μL and incubated for 24 h at 37° C., 5% CO2, and ambient O2. Compound A was tested at various concentrations viz. […] After 20 h incubation, the plates were removed and incubated at room temperature, 5% CO2, and ambient O2 for 1.5 h. 40 μL of Bright Glo Luciferase reagent (Promega™, USA) was added and after 3 min, luminescence was measured using a Polar Star Plate Reader (USA) in luminescence mode. Appropriate control cells (U251 pGL3) were treated identically, except that they were treated at 37° C., 5% CO2 and ambient O2. Compound toxicity was assayed using the MTS assay.

Assay [1] deals with all the breast cancer cell lines. Put plainly: PI assay, summary over the breast cancer cell line panel. As to conditions: Homo sapiens; nine breast cancer cell lines of Table 1B; read-out: IC50 range over all the breast cancer cell lines. The class given is cell-based. The procedure:
(§1) The propidium iodide fluorescence assay (PI) was carried out according to the procedure mentioned in Anticancer Drugs, 1995, 6, 522-32. The assay was developed to characterize the in vitro growth of human tumor cell lines as well as to test the cytotoxic activity of the compounds. Propidium iodide (PI) was used as a dye, which penetrates only damaged cellular membranes. Intercalation complexes are formed by PI with double-stranded DNA, which effect an amplification of the fluorescence. After freezing the cells at −20° C. for 24 h, PI had access to total DNA leading to total cell population counts. Background readings were obtained from cell-free wells containing media and propidium iodide. The human breast cancer cell lines (i.e. […] Control wells were treated with vehicle (DMSO). At the end of the incubation periods, the plates were assayed using PI cytotoxicity assay protocol. Percent cytoxicity was calculated at various drug concentrations and from the graph plotted the IC50 values were determined.

Assay [2] addresses T1, PARP (Homo sapiens, UniProt P09874).
T1 construct: endogenous in cells; host or cells: MDA-MB-231; MDA-MB-468
Kind of assay: PARP enzyme activity measured by PAR polymers (Western blot), MDA-MB-231. The class given is cell-based. As to conditions: 1.5 μM and 5 μM, 24 h. The procedure:
To study PARP enzyme activity, PAR polymer formation was measured. MDA-MB-231 and MDA-MB-468 cells were seeded in RPMI 1460 medium with 10% FCS in […] tissue culture flask and incubated for 24 h. These cells were treated at 1.5 μM and 5 μM of Compound A for 24 h. The cells were harvested (trypsinised) and lysed using lysis buffer. Western blotting (Molecular Cancer Therapeutics, 2007, 6, 918-925) was done with specific antibody to PAR.
(§2) Correlation of PARP activity and cell cycle proteins cyclin D1, total Rb and pRb 780 were studied in two TNBC cell lines viz. MDA-MB-468 and MDA-MB-231. MDA-MB-231 and MDA-MB-468 cells were seeded in RPMI 1460 medium with 10% FCS in […] tissue culture flask and incubated for 24 h. These cells were treated at 1.5 μM and 5 μM Compound A for 24 h. The cells were harvested (trypsinised) and lysed using lysis buffer. Western blotting was carried out (Molecular Cancer […], 2007, 6, 918-925) using specific antibody to PAR, PARP, cyclin D1, CDK4 and pRb Ser 780.
Background: A western blot detects proteins with antibodies after separation by electrophoresis.

Assay [3] relates to PARP. Put plainly: Western blot for PARP cleavage in MDA-MB-468. Type of assay: cell-based, human. As to conditions: 1.5 μM and 5 μM, 24 h. The procedure:
as §2

The test system of another assay is MCF-7. Kind of assay: Multicellular tumor spheroid (MCTS, 3D) formation. The class given is cell-based, human. The note with it: MCF-7 MCTS. The procedure:
The assay was carried out according to the method disclosed in Methods in Molecular Medicine, 2007, 140, 141-151.
The multicellular tumor spheroid (MCTS) model is one of the best-described 3D in vitro tumor model systems, which depicts many of the characteristics of tumor tissue and allows reproducible experiments, offering an excellent in vitro screening system. MCTS were propagated using the hanging drop method. Briefly, the cell monolayer was detached using trypsin-EDTA. Cell count was adjusted and 20 μL hanging droplets containing 1,000 cells/drop, were made in bacterial grade petridishes. These hanging drops were incubated for 24 h at 37° C. in a humidified atmosphere of 5% CO2. The MCTS thus generated were cultured in the presence or absence of varying concentrations (0.3 μM to 30 μM) of Compound A for 72 h.

The test system of the next assay is pRbSer780. Put plainly: Western blot of cell cycle proteins in MCF-7. The class given is cell-based, human. As to conditions: 1.5 μM, 3, 6, 9, 12 and 24 h. The protocol: (§3) MCF-7 cells were seeded in RPMI 1460 medium with 10% FCS in […] tissue culture flask and incubated for 24 h. These cells were treated with Compound A at 1.5 μM. At various time points viz. 3 h, 6 h, 9 h, 12 h and 24 h the cells were harvested (trypsinised) and lysed using lysis buffer. Protein content was estimated by Bradford method (Anal. Biochem., 1976, 72, 248-254). Lysate was applied to Sodium Dodecyl Sulphate-Polyacrylamide Gel Electrophoresis (SDS-PAGE) followed by Western blotting. Western blotting was done using specific antibodies to various cell cycle proteins viz. cyclin D1, CDK4, Rb and pRbSer780.

The test system of another assay is cyclin D1. Put plainly: Western blot of cell cycle proteins in MCF-7. The note with it: 1.5 μM, 3, 6, 9, 12 and 24 h. The class given is cell-based, human. The procedure: as §3
The test system of a further assay is Rb. Put plainly: Western blot of cell cycle proteins in MCF-7. The class given is cell-based, human. As to conditions: 1.5 μM, 3, 6, 9, 12 and 24 h. The procedure: as §3
The test system of the next assay is Bcl-2. Kind of assay: Western blot analysis in MCF-7 cells. The class given is cell-based, human. The note with it: 1.5 and 4.5 μM, 6, 24 and 30 h. The procedure: The Western blot assay was carried out according to the procedure disclosed in Molecular Cancer Therapeutics, 2007, 6, 918-925 with some modifications.
MCF-7 and MDA-MB-231 cells were seeded in RPMI 1460 medium with 10% FCS in […] tissue culture flask and incubated for 24 h. The cells were treated with Compound A at 1.5 and 4.5 μM. At various time points, i.e. 6, 24 and 30 h the cells were harvested or trypsinized and lysed using lysis buffer (Sigma Aldrich, USA). Protein content was estimated. Lysate was applied to Sodium Dodecyl Sulphate-Polyacrylamide Gel Electrophoresis (SDS-PAGE) followed by western blotting (Molecular Cancer Therapeutics, 2007, 6, 918-925). Western blotting was done using specific antibodies to Bcl-2 and actin. The results are depicted in FIG. 4.

A further assay deals with MDA-MB-468. Put plainly: Cytotoxicity assay using propidium iodide (PI). Type of assay: cell-based, human. The procedure:
as §1

T1 sequence (P09874 2-1014 limits assumed): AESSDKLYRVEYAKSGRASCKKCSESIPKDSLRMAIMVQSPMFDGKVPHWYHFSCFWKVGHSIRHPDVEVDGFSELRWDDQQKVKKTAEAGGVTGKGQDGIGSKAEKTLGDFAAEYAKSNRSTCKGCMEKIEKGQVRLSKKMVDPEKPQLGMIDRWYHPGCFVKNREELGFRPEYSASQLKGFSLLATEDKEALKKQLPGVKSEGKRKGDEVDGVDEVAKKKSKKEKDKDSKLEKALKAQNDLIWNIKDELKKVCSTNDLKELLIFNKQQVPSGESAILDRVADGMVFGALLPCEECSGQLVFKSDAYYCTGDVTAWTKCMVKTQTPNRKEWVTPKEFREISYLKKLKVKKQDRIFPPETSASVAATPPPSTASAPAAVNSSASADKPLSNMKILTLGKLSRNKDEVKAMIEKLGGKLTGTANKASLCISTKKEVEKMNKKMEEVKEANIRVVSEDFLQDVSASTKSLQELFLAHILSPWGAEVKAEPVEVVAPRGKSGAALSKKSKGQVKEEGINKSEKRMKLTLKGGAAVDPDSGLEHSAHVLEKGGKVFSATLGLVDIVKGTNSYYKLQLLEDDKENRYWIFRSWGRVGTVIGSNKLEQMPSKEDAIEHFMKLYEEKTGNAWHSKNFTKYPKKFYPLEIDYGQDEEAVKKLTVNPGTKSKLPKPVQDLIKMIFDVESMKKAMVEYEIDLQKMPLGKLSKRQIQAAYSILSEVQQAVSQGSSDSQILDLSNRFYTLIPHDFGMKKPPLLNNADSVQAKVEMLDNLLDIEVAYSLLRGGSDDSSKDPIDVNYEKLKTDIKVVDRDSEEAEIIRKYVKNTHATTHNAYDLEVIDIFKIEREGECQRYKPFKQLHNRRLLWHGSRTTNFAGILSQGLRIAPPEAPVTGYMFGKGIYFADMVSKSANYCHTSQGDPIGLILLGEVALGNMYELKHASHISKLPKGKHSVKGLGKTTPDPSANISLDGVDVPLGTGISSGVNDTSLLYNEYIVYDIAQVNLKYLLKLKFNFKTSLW

On to `CN1CC[C@@H](c2c(O)cc(O)c3c(=O)cc(-c4ccccc4Cl)oc23)[C@@H]1CO.Cl` [Compound A, (+)-trans-2-(2-Chloro-phenyl)-5,7-dihydroxy-8-(2-hydroxymethyl-1-methyl-pyrrolidin-3-yl)-chromen-4-one hydrochloride], for which the “expression of HIF-1α (luciferase reporter)” value in the assay on HIF-1α is “effectively blocked the expression of HIF-1α in a dose dependent manner”. Moreover, the IC50 (as a rule, the point on the concentration scale where inhibition reaches its midpoint) in assay [1] was 300 to 1000 nM; with MDA-MB-468 (Homo sapiens, 48 h treatment, PI assay), 1000 nM. On PARP [2], the “PARP enzyme activity (PAR polymer formation)” value was “inhibits PARP enzyme activity”. In addition, the PARP cleavage result in the assay with PARP [3] was “PARP cleavage was prominent”. For the same molecule, the “concentration from which spheroid formation was arrested” value with MCF-7 (0.3 μM to 30 μM, 72 h) is ≥ 3 µM. The “size of MCTS formed” value in the assay with MCF-7 (1 μM) is recorded as “smaller as compared to control”. In addition, in the assay on pRbSer780, the pRb expression result was “decrease from 6 h onwards and significantly at 12 h”. For the same molecule, the “Cyclin D1 expression” value in the assay on cyclin D1 is “decrease from 6 h onwards and significantly at 12 h”. In addition, the “total Rb” value with Rb was “no significant change in total Rb except at 24 h”. For the same molecule, the “expression of antiapoptotic protein Bcl-2” value with Bcl-2 is “significantly down regulated from 24 h onwards”. For the same molecule, in the assay with MDA-MB-468 (determined as in Example 3), the IC10 (commonly the point of the concentration-response curve where the effect stands at 10%) is 250 nM. For the same molecule, the IC30 (in general, the concentration needed for an effect of 30%) in the assay on MDA-MB-468 (determined as in Example 3) worked out at 500 nM.
